The results in this text go back to publication PMC3210473 (Biotechnology and bioengineering, 2011).

Assay [1] deals with T1, sensor 6 (ERα 312-595) (Homo sapiens, UniProt P03372).
T1 sequence (P03372 312-595): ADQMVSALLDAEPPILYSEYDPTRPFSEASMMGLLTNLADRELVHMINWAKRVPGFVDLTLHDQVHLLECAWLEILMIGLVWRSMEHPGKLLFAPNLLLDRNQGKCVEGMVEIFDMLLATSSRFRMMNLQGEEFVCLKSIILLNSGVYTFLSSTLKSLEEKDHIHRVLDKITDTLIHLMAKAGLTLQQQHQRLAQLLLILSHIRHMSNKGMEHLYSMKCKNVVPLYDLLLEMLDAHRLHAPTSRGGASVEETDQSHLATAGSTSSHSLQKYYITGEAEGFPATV
Nature of the assay: split mVenus complementation, flow cytometry. The format is cell-based. (In general: A flow cytometer gives signals particle by particle.)

The target in assay [2] is T1, sensor 6 (ERα 312-595). Nature of the assay: split mVenus complementation, flow cytometry. The settings on record: transfected HeLa cells, up to […] ligand, […] h. The format is cell-based.

At sensor 6 (ERα 312-595) [1], `C[C@]12CC[C@@H]3c4cc(O)c(O)cc4CC[C@H]3[C@@H]1CC[C@@H]2O` [2-Hydroxyestradiol] returned a half-maximal effective concentration (EC50) of 550 ± 100 nM. In the case of `O=c1c(-c2ccc(O)cc2)coc2cc(O)ccc12` [daidzein], the “split mVenus complementation, flow cytometry” value at sensor 6 (ERα 312-595) [2] is “both of which caused an increase in fluorescence at micromolar concentrations”. Regarding `C[C@]12CC[C@@H]3c4ccc(O)c(O)c4CC[C@H]3[C@@H]1CC[C@@H]2O` [4-Hydroxyestradiol], at sensor 6 (ERα 312-595) [1], the EC50 was found to be 58 ± 4.7 nM. In turn, `C/C=C(/C(=C/C)c1ccc(O)cc1)c1ccc(O)cc1` [Dienestrol] displayed an EC50 at sensor 6 (ERα 312-595) [1] of 4.4 ± 0.87 nM. Regarding `Clc1ccc(C(c2ccccc2Cl)C(Cl)(Cl)Cl)cc1` (centres unmarked) [o,p’-DDT], the “split mVenus complementation, flow cytometry” value at sensor 6 (ERα 312-595) [2] is “The pesticide o,p’-DDT, and a PCB compound also displayed activation beginning at micromolar levels”.

A word on the EC50: it is the midpoint of the concentration-response curve. A lower EC50 goes with a more potent agent.
